Values quoted from earlier work in patent publication US20210283075A1, “METHODS OF TREATING ATTENTION DEFICIT HYPERACTIVITY DISORDER” (Ovid Therapeutics, Inc., priority 2018, published 2021).

Experiments:
[1] = compared to lorazepam
[2] = compared to placebo
sigma-1 receptor = sigma-1 receptor (Homo sapiens, UniProt Q99720)
5-HT2C = target: T1, 5-HT2C (Homo sapiens, UniProt P28335)
T1 sequence (P28335 33-458): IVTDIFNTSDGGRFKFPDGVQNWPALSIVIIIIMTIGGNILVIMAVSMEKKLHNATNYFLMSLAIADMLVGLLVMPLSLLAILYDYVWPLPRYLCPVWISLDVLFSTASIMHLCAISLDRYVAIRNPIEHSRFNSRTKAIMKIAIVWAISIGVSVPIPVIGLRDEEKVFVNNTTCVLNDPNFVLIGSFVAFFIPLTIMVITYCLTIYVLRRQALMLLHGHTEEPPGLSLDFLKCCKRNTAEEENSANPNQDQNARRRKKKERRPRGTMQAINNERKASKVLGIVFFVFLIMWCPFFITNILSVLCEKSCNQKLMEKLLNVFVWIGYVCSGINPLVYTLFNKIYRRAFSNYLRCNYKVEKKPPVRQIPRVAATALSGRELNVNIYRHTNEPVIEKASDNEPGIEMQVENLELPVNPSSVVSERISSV

dopamine D3 = dopamine D3 (Homo sapiens, UniProt P35462)
Sequence of dopamine D3 (P35462 whole entry): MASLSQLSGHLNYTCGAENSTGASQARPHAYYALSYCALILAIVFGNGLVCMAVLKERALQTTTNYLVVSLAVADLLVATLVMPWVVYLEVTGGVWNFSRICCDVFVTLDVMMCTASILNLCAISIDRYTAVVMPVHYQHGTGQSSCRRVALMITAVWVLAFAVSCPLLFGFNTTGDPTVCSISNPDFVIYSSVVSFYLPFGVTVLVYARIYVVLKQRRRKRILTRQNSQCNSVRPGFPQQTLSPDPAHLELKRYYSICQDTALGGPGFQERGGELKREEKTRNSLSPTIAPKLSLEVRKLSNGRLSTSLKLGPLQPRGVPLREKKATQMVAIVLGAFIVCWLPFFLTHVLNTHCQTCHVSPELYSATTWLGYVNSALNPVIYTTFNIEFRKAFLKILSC

[3] = tested on: brain-derived neurotrophic factor (BDNF); conditions: hypothalamus

Sequence of sigma-1 receptor (Q99720 whole entry, species assumed): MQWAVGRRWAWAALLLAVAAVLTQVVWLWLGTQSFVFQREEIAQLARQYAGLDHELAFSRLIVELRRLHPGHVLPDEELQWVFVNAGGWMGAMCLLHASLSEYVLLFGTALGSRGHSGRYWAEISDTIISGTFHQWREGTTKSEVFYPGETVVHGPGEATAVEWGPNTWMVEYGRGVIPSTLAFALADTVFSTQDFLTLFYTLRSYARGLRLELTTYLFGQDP

activity at sigma-1 receptor (sigma-1 receptor): sigma-1 receptor agonist
activity at 5-HT2C (5-HT2C): 5-HT2C antagonist
activity at dopamine D3 (dopamine D3): dopamine D3 agonist
Structure (SMILES): CCCCSc1ccc(C(SCCN(C)C)c2ccccc2)cc1 (stereo not shown) [Captodiamine, 2-[(4-butylsulfanylphenyl)-phenyl-methyl]sulfanyl-N,N-dimethylethanamine]
concentration and dexterity when driving [1]: improved the concentration and dexterity
tendency to drowsiness ([1]; when driving): without inducing a tendency to drowsiness
severity of benzodiazepine withdrawal symptoms [2]: lower severity of benzodiazepine withdrawal symptoms
BDNF protein levels [3]: increase
